Legend:
Test in all cases: Transient transfection (transactivation) assay in CV-1 cells, GAL4-PPAR chimera, luciferase reporter
Assay type in all cases: cell-based
PPAR gamma = biological target: T1, PPAR gamma (Homo sapiens, UniProt P37231)
T1 construct: expressed in transfected cells; host or cells: CV-1 cells
T1 sequence (P37231 238-503 limits assumed): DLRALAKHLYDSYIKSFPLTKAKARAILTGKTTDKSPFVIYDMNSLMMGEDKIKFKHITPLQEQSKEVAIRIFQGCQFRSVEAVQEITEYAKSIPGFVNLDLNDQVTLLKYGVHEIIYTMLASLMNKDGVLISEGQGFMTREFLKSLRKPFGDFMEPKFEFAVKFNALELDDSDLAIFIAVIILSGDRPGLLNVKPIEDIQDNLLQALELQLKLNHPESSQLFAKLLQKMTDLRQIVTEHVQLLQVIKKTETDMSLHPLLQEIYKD

PPAR alpha = biological target: T2, PPAR alpha (Homo sapiens, UniProt Q07869)
T2 construct: expressed in transfected cells; host or cells: CV-1 cells
T2 sequence (Q07869 239-466 limits assumed): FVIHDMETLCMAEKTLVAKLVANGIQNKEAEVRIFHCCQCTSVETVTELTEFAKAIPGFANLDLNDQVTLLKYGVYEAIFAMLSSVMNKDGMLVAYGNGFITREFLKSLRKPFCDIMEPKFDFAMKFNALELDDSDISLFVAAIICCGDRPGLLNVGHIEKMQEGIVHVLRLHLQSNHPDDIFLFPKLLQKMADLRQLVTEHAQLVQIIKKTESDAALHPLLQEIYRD
Summary of the method: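 GAL4 DNA-binding domain fused to PPAR ligand binding domain, co-transfected into CV-1 cells with a luciferase reporter carrying four or five GAL4 sites. Replated cells in phenol-red free DME with 5% delipidated calf serum were treated with compound or 1% DMSO for 20-24 hours; luciferase read for EC50 and efficacy.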

PPAR delta = biological target: T3, PPAR delta (Homo sapiens, UniProt Q03181)
T3 construct: expressed in transfected cells; host or cells: CV-1 cells
T3 sequence (Q03181 211-439 limits assumed): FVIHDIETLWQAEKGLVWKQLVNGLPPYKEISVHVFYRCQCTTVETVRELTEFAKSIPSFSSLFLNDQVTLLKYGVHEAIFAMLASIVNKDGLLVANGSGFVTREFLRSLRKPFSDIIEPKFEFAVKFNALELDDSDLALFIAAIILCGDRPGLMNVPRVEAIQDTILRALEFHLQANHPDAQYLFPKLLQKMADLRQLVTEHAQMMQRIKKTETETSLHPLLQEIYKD

| Compound | EC50 (PPAR gamma) | EC50 (PPAR alpha) | EC50 (PPAR delta) |
| --- | --- | --- | --- |
| COc1ccc(S(=O)(=O)N2[C@H](C)CN(c3ccc(C(F)(F)F)cn3)C[C@@H]2C)cc1CC(=O)O [Example 78, {5-[2,6-Dimethyl-4-(5-trifluoromethyl-pyridin-2-yl)-piperazine-1-sulfonyl]-2-methoxy-phenyl}-acetic acid] | > 100 µM | > 100 µM | < 5 µM |
| COc1ccc(CC(=O)O)cc1S(=O)(=O)N1[C@H](C)CN(c2ccc(C(F)(F)F)cn2)C[C@@H]1C [Example 82, {3-[2,6-Dimethyl-4-(5-trifluoromethyl-pyridin-2-yl)-piperazine-1-sulfonyl]-4-methoxy-phenyl}-acetic acid] | > 100 µM | > 100 µM | 5 to 100 µM |
| Cc1ccc(S(=O)(=O)N2[C@H](C)CN(c3ccc(Cl)c(Cl)c3)C[C@@H]2C)cc1CC(=O)O [Example 83, {5-[4-(3,4-Dichloro-phenyl)-2,6-dimethyl-piperazine-1-sulfonyl]-2-methyl-phenyl}-acetic acid] | > 100 µM | > 100 µM | < 5 µM |
| CN(C)Cc1cc(CC(=O)O)cc(S(=O)(=O)N2CCN(c3ccc(C(F)(F)F)cc3)CC2)c1 [Example 84, {3-Dimethylaminomethyl-5-[4-(4-trifluorometbyl-phenyl)-piperazine-1-sulfonyl]-phenyl}-acetic acid] | > 100 µM | > 100 µM | > 100 µM |
| COCc1cc(CC(=O)O)cc(S(=O)(=O)N2CCN(c3ccc(C(F)(F)F)cc3)CC2)c1 [Example 85, {3-Methoxymethyl-5-[4-(4-trifluoromethyl-phenyl)-piperazine-1-sulfonyl]-phenyl}-acetic acid] | > 100 µM | > 100 µM | 5 to 100 µM |
| Cc1ccc(S(=O)(=O)N2CCN(c3cnc(Cl)cn3)CC2)cc1CC(=O)O [Example 86] | > 100 µM | > 100 µM | > 100 µM |
| CCNCc1cc(CC(=O)O)cc(S(=O)(=O)N2CCN(c3ccc(C(F)(F)F)cc3)CC2)c1 [Example 88, {3-Ethylaminomethyl-5-[4-(4-trifluoromethyl-phenyl)-piperazine-1-sulfonyl]-phenyl}-acetic acid] | > 100 µM | > 100 µM | > 100 µM |
| COCCNCc1cc(CC(=O)O)cc(S(=O)(=O)N2CCN(c3ccc(C(F)(F)F)cc3)CC2)c1 [Example 89, {3-[(2-Methoxy-ethylamino)-methyl]-5-[4-(4-trifluoromethyl-phenyl)-piperazine-1-sulfonyl]-phenyl}-acetic acid] | > 100 µM | > 100 µM | > 100 µM |
| O=C(O)Cc1cc(COCCO)cc(S(=O)(=O)N2CCN(c3ccc(C(F)(F)F)cc3)CC2)c1 [Example 91, {3-(2-Hydroxy-ethoxymethyl)-5-[4-(4-trifluoromethyl-phenyl)-piperazine-1-sulfonyl]-phenyl}-acetic acid] | > 100 µM | > 100 µM | > 100 µM |
| O=C(O)Cc1cccc(S(=O)(=O)N2CCN(c3ccc(OC(F)(F)F)cc3)CC2)c1 [Example 92, {3-[4-(4-Trifluoromethoxy-phenyl)-piperazine-1-sulfonyl]-phenyl}-acetic acid] | > 100 µM | < 5 µM | < 5 µM |
| Cc1ccc(S(=O)(=O)N2CCN(c3ccc(C(F)(F)F)nc3)CC2)cc1CC(=O)O [Example 95, {2-Methyl-5-[4-(6-trifluoromethyl-pyridin-3-yl)-piperazine-1-sulfonyl]-phenyl}-acetic acid] | > 100 µM | > 100 µM | < 5 µM |
| O=C(O)Cc1cccc(S(=O)(=O)N2CCN(c3ccc(C(F)(F)F)cc3Br)CC2)c1 [Example 96] | > 100 µM | < 5 µM | < 5 µM |
| Cc1ccc(S(=O)(=O)N2CCN(c3ccc(C(F)(F)F)cc3Br)CC2)cc1CC(=O)O [Example 97, {5-[4-(2-Bromo-4-trifluoromethyl-phenyl)-piperazine-1-sulfonyl]-2-methyl-phenyl-}acetic acid] | > 100 µM | < 5 µM | < 5 µM |
| CCC1CN(c2ccc(C(F)(F)F)c(Cl)c2)CCN1S(=O)(=O)c1ccc(C)c(CC(=O)O)c1 (stereo not drawn) [Example 98, {5-[2-Ethyl-4-(3-chloro-4-trifluoromethyl-phenyl)-piperazine-1-sulfonyl]-2-methyl-phenyl}-acetic acid] | > 100 µM | < 5 µM | < 5 µM |
| Cc1ccc(S(=O)(=O)N2[C@H](C)CN(c3ccc(C(F)(F)F)c(Cl)c3)C[C@@H]2C)cc1CC(=O)O [Example 107, {5-[4-(3-Chloro-4-trifluoromethyl-phenyl)-2,6-dimethyl-piperazine-1-sulfonyl]-2-methyl-phenyl}-acetic acid] | > 100 µM | > 100 µM | < 5 µM |
| Cc1ccc(S(=O)(=O)N2C[C@H](C)N(c3ccc(C(F)(F)F)cn3)[C@@H](C)C2)cc1CC(=O)O [Example 108, {5-[3,5-(S,S)-Dimethyl-4-(5-trifluoromethyl-pyridin-2-yl)-piperazine-1-sulfonyl]-2-methyl-phenyl}-acetic acid] | 5 to 100 µM | 5 to 100 µM | < 5 µM |

More lines, now with the values ahead:

| EC50 (PPAR gamma) | EC50 (PPAR alpha) | EC50 (PPAR delta) | Compound |
| --- | --- | --- | --- |
| 5 to 100 µM | > 100 µM | < 5 µM | COc1ccc(CC(=O)O)cc1S(=O)(=O)N1CCN(c2ccc(C(F)(F)F)cc2)CC1 [Example 79, {4-Methoxy-3-[4-(4-trifluoromethyl-phenyl)-piperazine-1-sulfonyl]-phenyl}-acetic acid] |
| 5 to 100 µM | > 100 µM | < 5 µM | COc1ccc(CC(=O)O)cc1S(=O)(=O)N1CCN(c2ccc(C(F)(F)F)cn2)CC1 [Example 80] |
| 5 to 100 µM | > 100 µM | 5 to 100 µM | COc1ccc(CC(=O)O)cc1S(=O)(=O)N1CCN(c2ccc(C(F)(F)F)cn2)CC1C (stereo not drawn) [Example 81, {4-Methoxy-3-[2-methyl-4-(5-trifluoromethyl-pyridin-2-yl)-piperazine-1-sulfonyl]-phenyl}-acetic acid] |
| 5 to 100 µM | < 5 µM | < 5 µM | Cc1ccc(S(=O)(=O)N2CCN(c3ccc(OC(F)(F)F)cc3)CC2)cc1CC(=O)O [Example 87, {2-Methyl-5-[4-(4-trifluoromethoxy-phenyl)-piperazine-1-sulfonyl]-phenyl}-acetic acid] |
| 5 to 100 µM | < 5 µM | < 5 µM | Cc1ccc(S(=O)(=O)N2CCN(c3ccc(C(F)(F)F)c(F)c3)[C@@H](C)C2)cc1CC(=O)O [Example 90, {5-[4-(3-Fluoro-4-trifluoromethyl-phenyl)-3-(S)-methyl-piperazine-1-sulfonyl]-2-methyl-phenyl}-acetic acid] |
| 5 to 100 µM | < 5 µM | < 5 µM | Cc1ccc(S(=O)(=O)N2CCN(c3ccc(C(F)(F)F)c(Cl)c3)CC2)cc1CC(=O)O [Example 93, {5-[4-(3-Chloro-4-trifluorometbyl-phenyl)-piperazine-1-sulfonyl]-2-methyl-phenyl}-acetic acid] |
| < 5 µM | 5 to 100 µM | < 5 µM | CCC1CN(S(=O)(=O)c2ccc(C)c(CC(=O)O)c2)CCN1c1ccc(C(F)(F)F)cn1 (stereo not drawn) [Example 94, {5-[3-Ethyl-4-(5-trifluoromethyl-pyridin-2-yl)-piperazine-1-sulfonyl]-2-methyl-phenyl}-acetic acid] |
| 5 to 100 µM | < 5 µM | < 5 µM | Cc1ccc(S(=O)(=O)N2CCN(c3ccc(OC(F)(F)F)cc3)[C@@H](C)C2)cc1CC(=O)O [Example 99] |
| 5 to 100 µM | 5 to 100 µM | < 5 µM | Cc1ccc(S(=O)(=O)N2[C@H](C)CN(c3ccc(OC(F)(F)F)cc3)C[C@@H]2C)cc1CC(=O)O [Example 100, {5-[2,6-Dimethyl-4-(4-trifluoromethoxy-phenyl)-piperazine-1-sulfonyl]-2-methyl-phenyl}-acetic acid] |
| 5 to 100 µM | 5 to 100 µM | < 5 µM | Cc1ccc(S(=O)(=O)N2CCN(c3ccc(Cl)c(Cl)c3)C[C@@H]2C)cc1CC(=O)O [Example 101, {5-[4-(3,4-Dichloro-phenyl)-2-(S)-methyl-piperazine-1-sulfonyl]-2-methyl-phenyl}-acetic acid] |
| 5 to 100 µM | 5 to 100 µM | < 5 µM | Cc1ccc(S(=O)(=O)N2CCN(c3ccc(Cl)c(Cl)c3)[C@@H](C)C2)cc1CC(=O)O [Example 102, {5-[4-(3,4-Dichloro-phenyl)-3-(S)-methyl-piperazine-1-sulfonyl]-2-methyl-phenyl}-acetic acid] |
| 5 to 100 µM | 5 to 100 µM | < 5 µM | Cc1ccc(S(=O)(=O)N2[C@@H](C)CN(c3ccc(C(F)(F)F)cn3)C[C@@H]2C)cc1CC(=O)O [Example 103, {5-[2,6-(S,S)-Dimethyl-4-(5-trifluoromethyl-pyridin-2-yl)-piperazine-1-sulfonyl]-2-methyl-phenyl}-acetic acid] |

Source: patent US20050234046A1 (Kalypsys, Inc., priority 2004, published 2005)
